Results as given in patent US20140120106A1, “Stimulation of Arterial Collateral Growth and Lymphogenesis” (YALE UNIVERSITY, priority 2011, published 2014).

Columns and labels:
HUVEC [1] = assay: qPCR of lymphatic fate genes in RAF1-transduced HUVEC treated with pathway inhibitors for 24 hours; type: cell-based, Human; details: HUVEC with GFP or RAF1S259A adenovirus, Rapamycin 10 nM, AKT inhibitor VIII 1 μM
Procedure: ERK activation was quantified by densitometry and is represented as ratio of pERK1/2 versus total ERK1/2. Immunofluorescence staining showing higher P-ERK1/2 in β-GAL positive endothelial cells of E12.5 S259A embryos. jv, jugular vein. FIGS. 10B-10E are graphs showing HUVEC transduced with control, wild type Raf1 or RAF1S259A lentiviruses treated with DMSO, MEK inhibitor U0126 (10 μM) or PI3K inhibitor LY294002 (10 μM) for 24 hours. Sox18 (FIG. 10B), Prox1 (Figure), Vegfr3 (FIG. 10D) and Lyve1 (10E) expression was assessed by qPCR. FIGS. 10E-10H are graphs showing HUVEC transduced with GFP or RAF1S259A adenoviruses treated with DMSO, Rapamycin (10 nM), AKT inhibitor VIII (1 μM) and LY294002 (10 μM) for 24 hours. Sox18 (FIG. 10F), Prox1 (FIG. 10G) and Coup-TFII (FIG. 10H) expression assessed by qPCR. Data are Mean±SEM (n=3).*, p<0.05; **, p<0.01.
(§1) Total RNA was purified using a QiagenRNeasyPlus Mini kit. cDNA was synthesized using a Bio-Rad iScript cDNA Synthesisis kit. qPCR was performed using a Bio-Rad iQ SYBR Green Supermix on a Bio-Rad CFX96 Real Time System. For immunoblot, cells were lysed in RIPA buffer supplemented with protease and phosphatase inhibitors. Cell lysates were then separated with 4-20% gradient gel (Bio-Rad) and subjected to immunoblot.

HUVEC [2] = assay: Matrigel tube formation assay; type: cell-based, Human; details: overexpression in HUVEC, 8 hours
HUVEC [3] = assay: Apoptosis assay (serum withdrawal, Annexin V/PI flow cytometry); type: cell-based, Human; details: serum-starved 48 hours, vehicle, versus empty control lentivirus
HUVEC [4] = assay: qPCR of artery-vein specification genes in lentivirus infected HUVEC; type: cell-based, Human
ERK = ERK activation by western blot in HUVEC infected with RAF1 WT or RAF1 S259A lentivirus; type: cell-based, Human
HUVEC [5] = assay: Proliferation assay (cell counting); type: cell-based, Human; details: overexpression in HUVEC
Akt1-/- cells = assay: Dll4 expression in AKT+/+ and AKT-/- cells expressing RAF1 constructs; type: cell-based
Excerpt: FIGS. 3A to 3M show expression of Dll4 (FIG. 3A), Hey 1 (FIG. 3B), Hey 2 (FIG. 3C), Hes 1 (FIG. 3D), Coup-TFII (FIG. 3E), EphB4 (FIG. 3F), Dll1 (FIG. 3G), Ephrin B2 (FIG. 3G), Notch 1 (FIG. 3I), Notch 4 (FIG. 3J), Jagged 1 (FIG. 3K), FLK1 (FIG. 3L), Nrp1 (3N) and Flt4 (3N).

[6] = tested on: VE-cadherin-tTA/RAF1S259A double transgenic embryos; assay: Endothelial-specific RAF1S259A transgenic mice (Noonan syndrome mouse model); type: in vivo; details: primary EC purified from E12.5 S259A embryos versus control littermates
Excerpt: Human wild type Raf1 and RAF1S259A plasmids were gifts of Dr. Guri Tzivion (Wayne State University). To generate RAF1S259A transgenic mice, hRAF1S259A was cloned to NotI+PstI sites of pBI-G Tet-off vector (Clontech). TRE-RAF1S259A transgenic mouse line was then generated at the Yale Animal Genomics Services center. VE-cadherin-tT A mice (Sun, et al. Proc Natl Acad Sci USA 102:128-133 (2005)) were from W. Sessa lab (Yale). Time-mating was setup by intercross of male TRE-RAF1 S259A mice with VE-cadherin-tTA female mice. For paraffin and frozen sections, embryos were fixed in 4% paraformaldehyde for overnight at 4° C.
Primary mouse endothelial cells were isolated from E12.5 embryos using a protocol similar to that described by Ren, et al. J Clin Invest 120:1217-1228 (2010). Briefly, E12.5 embryos were harvested, minced finely with scissors, and then digested in 25 ml collagenase 0.2% (w/v) at 37° C. for 20 minutes. The crude cell preparation was pelleted and resuspended in DPBS. The cell suspension was incubated with CD31-coated beads (Invitrogen) at room temperature for 10 minutes with rotation. Using a magnetic separator, the bead-bound cells were recovered, washed with DMEM-20% FBS. The cells were then used for gene expression analysis by qPCR.

HUAEC = assay: qPCR of Prox1 in lentivirus-transduced HUAEC; type: cell-based, Human; details: HUAEC transduced with lentivirus
Excerpt: Raf1 lentiviruses were produced in 293A cells (Invitrogen) by co-transfection of pLVX-HA-Raf1 WT or S259A with lentiviral packaging plasmids pMD2.G, pRSV-REV and pMDLg/pRRE (Addgene) as described by Dull, J Virol 72:8463-8471 (1998). Control lentivirus was also made using an empty vector pLVX-IRES-puro. Ad-MEK1 CA was from Cell Biolabs, Inc. Ad-Mek1 DN was purchased from Vector Biolabs. All adenoviruses were produced, amplified and purified as described by Dull 1998; Luo, et al. Nat Protoc 2:1236-1247 (2007). For lentiviral infection, cells were incubated with lentivirus in growth medium in the presence of 8 μg/ml polybrene (Sigma) for 8 hours. For adenoviral infection, cells were incubated with adenovirus (MOI=100) in growth medium for overnight.
as §1

HDLEC [7] = assay: qPCR of lymphatic fate genes in adenovirus-transduced HDLEC; type: cell-based, Human
14-3-3 = assay: Immunoprecipitation of HA-RAF1 from HUVEC, western blot for 14-3-3; type: binding, Human; details: anti-HA immunoprecipitation
HUVEC [8] = assay: Western blot of DLL4, cleaved NOTCH1 and ERK in RAF1 virus infected HUVEC; type: cell-based, Human
HUVEC [9] = assay: qPCR of lymphatic fate genes in virus-transduced HUVEC; type: cell-based, Human
HUVEC [10] = assay: Migration (wound healing) assay; type: cell-based, Human; details: under stimulation of serum, 18 hours
HDLEC [11] = assay: Sox18 expression in serum starved HDLEC stimulated with VEGF-C; type: cell-based, Human; details: 100 ng/ml VEGF-C
Procedure: FIGS. 11A-11J are graphs showing excessive ERK activation is the basis of lymphatic abnormalities in Noonan syndrome. HUVEC (FIGS. 11A-11D) and HDLEC (FIGS. 11E-11H) were transduced with adenovirus expressing lacZ, cytosolic localized constitutive active ERK (ME) or nuclear localized constitutive active ERK (LA). Sox18 (FIGS. 11A and 11E), Prox1 (FIGS. 11B and 11F), Vegfr3 (FIGS. 11C and 11G) and Lyve1 (FIGS. 11D and 11H) expression were assessed by qPCR. Data are Mean±SEM (n=3). FIG. 11I is a graph of serum starved HDLEC stimulated with 100 ng/ml VEGF-C for an indicated time in the presence of […] (10 μM) or an equal volume of DMSO. Sox18 expression was assessed by qPCR. Data are Mean±SEM (n=3). FIG. 11J is a graph of lymphatic vessel diameter calculated by whole mount staining of skin vasculature of E14.5 embryos treated with MEK inhibitor U0126 or DMSO. Statistical significance was determined by two-tailed t-test (Control, n=5 embryos; S259A, n=3 embryos).
as §1

[12] = lentivirus infected HUVEC, qPCR
[13] = serum-starved HUVEC, 50 ng/ml VEGF-A164
[14] = HDLEC transduced with the named construct
[15] = adenovirus MOI 0, 5, 10, 50 for 48 hours, HUVEC
[16] = HUVEC transduced with the named construct

O=c1[nH]c2ccccc2n1C1CCN(Cc2ccc(-c3nc4cc5[nH]cnc5cc4nc3-c3ccccc3)cc2)CC1 [AKT inhibitor VIII]
Coup-TFII expression (HUVEC [1]): significantly inhibited
Prox1 expression (HUVEC [1]): significantly inhibited
Sox18 expression (HUVEC [1]): slightly inducing

RAF1 S259A: RAF1 Ser259 to Ala259 mutant, not inhibited by AKT; expressed from lentivirus, adenovirus or endothelial transgene
tube formation (tube length) (HUVEC [2]): significantly improved
cell survival (HUVEC [3]): significantly higher survival
Egr1 expression (HUVEC [4]; Raf1SA introduction): activated expression
Ets1 expression (HUVEC [4]; Raf1SA introduction): activated expression
Sox7 expression (HUVEC [4]; Raf1SA introduction): not changed
Sox18 expression (HUVEC [4]; Raf1SA introduction): activated expression
Coup-TFII (venous marker) gene expression (HUVEC [4]; [12]): no changes
Dll1 gene expression (HUVEC [4]; [12]): not affected
Dll4 gene expression (HUVEC [4]; [12]): dramatically induced
EphB4 (venous fate gene) expression (HUVEC [4]; [12]): no changes
Ephrin B2 gene expression (HUVEC [4]; [12]): dramatically induced
Flk1 gene expression (HUVEC [4]; [12]): induced
Flt4 gene expression (HUVEC [4]; [12]): induced
Hes1 gene expression (HUVEC [4]; [12]): dramatically induced
Hey1 gene expression (HUVEC [4]; [12]): dramatically induced
Hey2 gene expression (HUVEC [4]; [12]): dramatically induced
Jagged1 gene expression (HUVEC [4]; [12]): dramatically induced
Notch4 gene expression (HUVEC [4]; [12]): dramatically induced
neuropilin1 (Nrp1) gene expression (HUVEC [4]; [12]): dramatically induced
Coup-TFII (venous marker) gene expression (HUVEC [4]; lentivirus infected HUVEC, qPCR, listed as RAF1S259A): slightly inhibiting
ERK activation (ERK; overexpression in HUVEC by lentivirus): constitutive activation
Akt signaling (ERK; [13]): remains normal
Erk activation (ERK; [13]): constitutive activation
cell proliferation (HUVEC [5]): significantly inhibited
DLL4 expression (Akt1-/- cells): strongly induced
Sox18 levels [6]: significantly higher
Prox1 expression (HUAEC): upregulated
Prox1 expression (HDLEC [7]; HDLEC transduced with adenovirus): not
Lyve1 expression (HDLEC [7]; [14]): Increased expression
Sox17 expression (HDLEC [7]; [14]): significant increase
Sox18 expression (HDLEC [7]; [14]): significant increase
Vegfr3 expression (HDLEC [7]; [14]): Increased expression
co-immunoprecipitation with 14-3-3 (14-3-3): did not
NOTCH1 activation (cleaved NOTCH1) (HUVEC [8]; HUVEC): activated
DLL4 protein (HUVEC [8]; [15]): dose-dependent and parallel increase
ERK activity (HUVEC [8]; [15]): dose-dependent and parallel increase
Dll4 protein (HUVEC [8]; lentivirus overexpression in HUVEC): dramatically increased
Sox7 expression (HUVEC [9]; HUVEC transduced with lentivirus): unchanged
Lyve1 expression (HUVEC [9]; [16]): Increased expression
Prox1 expression (HUVEC [9]; [16]): upregulated
Sox17 expression (HUVEC [9]; [16]): significant increase
Sox18 expression (HUVEC [9]; [16]): significant increase
Vegfr3 expression (HUVEC [9]; [16]): Increased expression
Coup-TFII levels (HUVEC [9]; in vitro or in vivo): no significant effect
cell migration (HUVEC [10]): significantly promoted

B1: VEGF-C: growth factor from R&D, the key VEGF in lymphatic EC (protein, UniProt P49767 112-227, looked up)
Vascular endothelial growth …: AHYNTEILKSIDNEWRKTQCMPREVCIDVGKEFGVATNTFFKPPCVSVYRCGGCCNSEGLQCMNTSTSYLSKTLFEITVPLSQGPKPVTISFANHTSCRCMSKLDVYRQVHSIIRR
Sox18 expression (HDLEC [11]): induced
